Assay: recombinant barcode read abundance after kanamycin selection (control-corrected) (log10(CPM+1)); higher = more efficient recombination; sequences stand for … in AGTGCAGAGAAAATCGGCCAGTTTTCTCTGCCTGCAGTCCGCATGCCGT…AGATTTATGCAGCGGACTGCCTTTCTCCCAAAGTGATAAACCGGACAGTATCATGGACCGGTTTTCCCGGTAATCCGTATTTGCAAGGTTGGTTTCACT; site = the 11-nt target
Summary of the method: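 Recombination efficiency comes from barcode counts at recombinant junctions, converted to counts per million, averaged and corrected against the control. Values appear as log10(CPM+1). They were obtained from a pooled E. coli screen in which each oligo paired a target with an IS621 bridge RNA target-binding loop, and cells were plated in duplicate on chloramphenicol/ampicillin LB agar or on chloramphenicol/ampicillin/kanamycin with 0.1 mM IPTG.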
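Further: IS621 recombinase and bridge RNA in Escherichia coli cells.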

Sequence | recombinant barcode read abundance (log10)
GCATGGACTTGGGTTCTAACCTGTTGCAG (site GCAGGGACTCT) | 0.241
GCATGGACTTGGGTTCTAACCTGTTGCAG (site GCATGGACTCT) | 2.24
GCCAACCCTTGGGTTCTAACCTGTTGCCT (site GCCAACCCTAA) | 0.111
GCCAACCCTTGGGTTCTAACCTGTTGCCT (site GCCAACCCTAC) | 0.0192
GCCAACCCTTGGGTTCTAACCTGTTGCCT (site GCCAACCCTAG) | 0.326
GCCAACCCTTGGGTTCTAACCTGTTGCCT (site GCCAACCCTAT) | 0.0781
GCCAAGCCTTGGGTTCTAACCTGTTGCTG (site GCCAAGCCTCA) | 0.257
GCCAAGCCTTGGGTTCTAACCTGTTGCTG (site TCCAACCCTCA) | 0.0182
GCCAAGGCTTGGGTTCTAACCTGTTGCCT (site AGTTTCACTTA) | 0.0355
GCCAAGGCTTGGGTTCTAACCTGTTGCCT (site GCCAAGGCTAG) | 0.407
GCCACGCCTTGGGTTCTAACCTGTTGCAG (site GCCACGCCTCT) | 0.115
GCCACGCCTTGGGTTCTAACCTGTTGCAG (site GCCCCGCCTCT) | 0.0522
GCCACGCCTTGGGTTCTAACCTGTTGCAG (site GCCGCGCCTCT) | 0.053
GCCACGCCTTGGGTTCTAACCTGTTGCAG (site GCCTCGCCTCT) | 0.389
GCCATGTCTTGGGTTCTAACCTGTTGCTA (site ACCTTGTCTTA) | 0.0829
GCCATGTCTTGGGTTCTAACCTGTTGCTA (site GCCATGTCTTA) | 0.145
GCCCGTCCTTGGGTTCTAACCTGTTGCCG (site CTCCGTCCTCG) | 0.116
GCCCGTCCTTGGGTTCTAACCTGTTGCCG (site GCCCGTCCTCG) | 1
GCCGAGTCTTGGGTTCTAACCTGTTGCCT (site GCCGAGTCTAG) | 1.03
GCCGAGTCTTGGGTTCTAACCTGTTGCCT (site GCCGAGTCTGT) | 0.142
GCCGAGTCTTGGGTTCTAACCTGTTGCTG (site GCCGAGTCTAA) | 0.11
GCCGAGTCTTGGGTTCTAACCTGTTGCTG (site GCCGAGTCTCA) | 0.564
GCCGAGTCTTGGGTTCTAACCTGTTGCTG (site GCCGAGTCTGA) | 0
GCCGAGTCTTGGGTTCTAACCTGTTGCTG (site GCCGAGTCTTA) | 0.219
GCCGGGTCTTGGGTTCTAACCTGTTGCTT (site GCAGGGTCTAA) | 1.26
GCCGGGTCTTGGGTTCTAACCTGTTGCTT (site GCCGGGTCTAA) | 0.812

Sequence | recombinant barcode read abundance (log10)
GCCGGGTCTTGGGTTCTAACCTGTTGCTT (site GCGGGGTCTAA) | 0.092
GCCGGGTCTTGGGTTCTAACCTGTTGCTT (site GCTGGGTCTAA) | 0.337
GCCGGTCCTTGGGTTCTAACCTGTTGCCT (site GCAGGTCCTAG) | 0.522
GCCGGTCCTTGGGTTCTAACCTGTTGCCT (site GCCGGTCCTAG) | 0.549
GCCGGTCCTTGGGTTCTAACCTGTTGCCT (site GCGGGTCCTAG) | 0.451
GCCGGTCCTTGGGTTCTAACCTGTTGCCT (site GCTGGTCCTAG) | 0.14
GCCGTAGCTTGGGTTCTAACCTGTTGCCT (site GACGTAGCTAG) | 0.0542
GCCGTAGCTTGGGTTCTAACCTGTTGCCT (site GCCGTAGCTAG) | 0.0284
GCCGTAGCTTGGGTTCTAACCTGTTGCCT (site GGCGTAGCTAG) | 0.163
GCCGTAGCTTGGGTTCTAACCTGTTGCCT (site GTCGTAGCTAG) | 0.00812
GCCTGCCCTTGGGTTCTAACCTGTTGCCT (site GACTGCCCTAG) | 0.0828
GCCTGCCCTTGGGTTCTAACCTGTTGCCT (site GCCTGCCCTAG) | 0.892
GCCTGCCCTTGGGTTCTAACCTGTTGCCT (site GGCTGCCCTAG) | 0.0211
GCCTGCCCTTGGGTTCTAACCTGTTGCCT (site GTCTGCCCTAG) | 0.0318
GCGAACCCTTGGGTTCTAACCTGTTGCGG (site GCGAACCCTCC) | 0.967
GCGAACCCTTGGGTTCTAACCTGTTGCGG (site GCTAACCCTAC) | 0.0412
GCGACATCTTGGGTTCTAACCTGTTGCCT (site GCGACATCTAG) | 0.428
GCGACATCTTGGGTTCTAACCTGTTGCCT (site TAAGATGCTCC) | 0.162
GCGCGCCCTTGGGTTCTAACCTGTTGCTG (site GCGCGCCCTCA) | 0.331
GCGCGCCCTTGGGTTCTAACCTGTTGCTG (site GCGCGCCCTCC) | 0.0616
GCGCGGCCTTGGGTTCTAACCTGTTGCCT (site ACGCGGCCTAG) | 0.56
GCGCGGCCTTGGGTTCTAACCTGTTGCCT (site CCGCGGCCTAG) | 0.0374
GCGCGGCCTTGGGTTCTAACCTGTTGCCT (site GCGCGGCCTAG) | 0.253
GCGCGGCCTTGGGTTCTAACCTGTTGCCT (site TCGCGGCCTAG) | 0.0177
GCGGATCCTTGGGTTCTAACCTGTTGCTA (site AGATTAGCTCG) | 0.159
GCGGATCCTTGGGTTCTAACCTGTTGCTA (site GCGGATCCTTA) | 1.9

Sequence | recombinant barcode read abundance (log10)
GCGGCTCCTTGGGTTCTAACCTGTTGCAT (site GCGACTCCTAT) | 0.0805
GCGGCTCCTTGGGTTCTAACCTGTTGCAT (site GCGCCTCCTAT) | 0.0751
GCGGCTCCTTGGGTTCTAACCTGTTGCAT (site GCGGCTCCTAT) | 1.55
GCGGCTCCTTGGGTTCTAACCTGTTGCAT (site GCGTCTCCTAT) | 0.331
GCGGGTACTTGGGTTCTAACCTGTTGCCT (site GCGGGTACTAG) | 1.47
GCGGGTACTTGGGTTCTAACCTGTTGCCT (site GCGTGTACTAG) | 0.0951
GCGTCCACTTGGGTTCTAACCTGTTGCTA (site GCGTCCACTTA) | 0.0606
GCGTCCACTTGGGTTCTAACCTGTTGCTA (site GCGTGCCCTTA) | 0.299
GCGTCCTCTTGGGTTCTAACCTGTTGCTT (site GCGTCCTCTAA) | 0.636
GCGTCCTCTTGGGTTCTAACCTGTTGCTT (site TACCGTCCTCC) | 0.0776
GCGTCTACTTGGGTTCTAACCTGTTGCCT (site GCGTCTACTAG) | 0.169
GCGTCTACTTGGGTTCTAACCTGTTGCCT (site GCGTGGACTAG) | 0.051
GCGTGCCCTTGGGTTCTAACCTGTTGCTA (site GCGTCCACTTA) | 0.00781
GCGTGCCCTTGGGTTCTAACCTGTTGCTA (site GCGTGCCCTTA) | 0.356
GCGTGGACTTGGGTTCTAACCTGTTGCCT (site GCGTCTACTAG) | 0.235
GCGTGGACTTGGGTTCTAACCTGTTGCCT (site GCGTGGACTAG) | 1.61
GCGTTACCTTGGGTTCTAACCTGTTGCCT (site GCGTTACCTAG) | 0.97
GCGTTACCTTGGGTTCTAACCTGTTGCCT (site GGGATACCTAG) | 0.0535
GCTAAGACTTGGGTTCTAACCTGTTGCTG (site GCTAAGACTCA) | 1.93
GCTAAGACTTGGGTTCTAACCTGTTGCTG (site GGTAAGACTCC) | 0.0258
GCTACCTCTTGGGTTCTAACCTGTTGCCT (site GCTACCTCTAG) | 1.6
GCTACCTCTTGGGTTCTAACCTGTTGCCT (site GTGACCTCTAG) | 0.254
GCTAGCCCTTGGGTTCTAACCTGTTGCGG (site GCGAGCCCTAC) | 0.0935
GCTAGCCCTTGGGTTCTAACCTGTTGCGG (site GCTAGCCCTCC) | 1.83
GCTAGGGCTTGGGTTCTAACCTGTTGCAG (site GCAAGGGCTCG) | 0.491

— the supplement of paper PMC11208160
